We go through two compounds from article PMC11267548 (JACS Au, 2024).

One may read the inhibition as the change of the read-out against control, counted positive when it falls.

The structures appear in SMILES notation. A value given as a limit tells only on which side of the number the result lay.

The experiment addresses T1, ScGPUT (Solitalea canadensis, UniProt H8KMA8).
T1 sequence (H8KMA8 1-293): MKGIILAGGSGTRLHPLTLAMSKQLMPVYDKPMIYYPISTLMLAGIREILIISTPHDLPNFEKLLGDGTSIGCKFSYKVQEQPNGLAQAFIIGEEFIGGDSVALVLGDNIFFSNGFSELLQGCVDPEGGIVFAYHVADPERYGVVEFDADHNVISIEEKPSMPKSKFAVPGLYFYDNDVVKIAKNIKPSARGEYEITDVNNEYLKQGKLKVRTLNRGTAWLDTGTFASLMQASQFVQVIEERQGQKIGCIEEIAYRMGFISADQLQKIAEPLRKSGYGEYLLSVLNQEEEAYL
The experiment can be described thus: conversion of xylose-1-phosphate to UDP-xylose, TLC. In kind it is biochemical. Conditions: read-out: % inhibition at 10 mM.

Regarding `Nc1ncnc2c1ncn2[C@@H]1O[C@H](COP(=O)(O)OP(=O)(O)O)[C@@H](O)[C@H]1O` [ADP], the inhibition at 10000 µM was over 50%.

With `Nc1ncnc2c1ncn2[C@@H]1O[C@H](COP(=O)(O)OP(=O)(O)OP(=O)(O)O)[C@@H](O)[C@H]1O` [ATP], the inhibition at 10000 µM is over 50%.
